Structure (SMILES) | melting point
O=C1C(Cl)=C(N(Cc2ccc([N+](=O)[O-])cc2)c2ccc(S(=O)(=O)Nc3ccccn3)cc2)C(=O)c2ccccc21 [Compound 6e, 4-((3-chloro-1,4-dioxo-1,4-dihydronaphthalen-2-yl)(4-nitrobenzyl)amino)-N-(pyridin-2-yl)benzenesulfonamide] | 80 to 82 °C
O=C1C(Cl)=C(N(Cc2ccccc2)c2ccc(S(=O)(=O)Nc3ccccn3)cc2)C(=O)c2ccccc21 [Compound 6d, 4-(benzyl(3-chloro-1,4-dioxo-1,4-dihydronaphthalen-2-yl)amino)-N-(pyridin-2-yl)benzenesulfonamide] | 78 to 80 °C
COc1cc(NC2=C(Cl)C(=O)c3ccccc3C2=O)ccc1S(=O)(=O)Nc1cccc(C)c1 [Compound 13k, 4-(3-chloro-1,4-dioxo-1,4-dihydro-naphthalen-2-ylamino)-2-methoxy-N-m-tolyl-benzenesulfonamide] | 264 to 267 °C
O=C1C(Cl)=C(N(Cc2ccc3ccccc3c2)c2ccc(S(=O)(=O)Nc3ccccn3)cc2)C(=O)c2ccccc21 [Compound 6f, 4-((3-chloro-1,4-dioxo-1,4-dihydronaphthalen-2-yl)(naphthalen-2-ylmethyl)amino)-N-(pyridin-2-yl)benzenesulfonamide] | 165 to 167 °C
O=C(NS(=O)(=O)c1ccc(NC2=CC(=O)c3ccccc3C2=O)cc1)c1ccccc1 [Compound 2p, N-(4-(1,4-dioxo-1,4-dihydronaphthalen-2-ylamino)phenylsulfonyl)benzamide] | 294 to 296 °C
COc1cnc(NS(=O)(=O)c2ccc(NC3=C(Cl)C(=O)c4ccccc4C3=O)cc2)nc1 [Compound 2e, 4-(3-chloro-1,4-dioxo-1,4-dihydronaphthalen-2-ylamino)-N-(5-methoxypyrimidin-2-yl)benzenesulfonamide] | 269 to 271 °C
Cc1ccc(NS(=O)(=O)c2ccc(NC3=C(Cl)C(=O)c4ccccc4C3=O)cc2)cc1 [Compound 13g, 4-(3-chloro-1,4-dioxo-1,4-dihydro-naphthalen-2-ylamino)-N-p-tolyl-benzenesulfonamide] | 257 to 260 °C
Cc1ccc(CN(C2=C(Cl)C(=O)c3ccccc3C2=O)c2ccc(S(=O)(=O)Nc3ccccn3)cc2)cc1 [Compound 6g, 4-((3-chloro-1,4-dioxo-1,4-dihydronaphthalen-2-yl)(4-methylbenzyl)amino)-N-(pyridin-2-yl)benzenesulfonamide] | 99 to 101 °C
O=C(NS(=O)(=O)c1ccc(NC2=C(Cl)C(=O)c3ccccc3C2=O)cc1)c1ccccc1 [Compound 2c, N-(4-(3-chloro-1,4-dioxo-1,4-dihydronaphthalen-2-ylamino)phenylsulfonyl)benzamide] | 216 to 217 °C
COc1cc(NC2=C(Cl)C(=O)c3ccccc3C2=O)ccc1S(=O)(=O)Nc1ccc(C)cc1 [Compound 13i, 4-(3-chloro-1,4-dioxo-1,4-dihydro-naphthalen-2-ylamino)-2-methoxy-N-p-tolyl-benzenesulfonamide] | 186 to 189 °C
COc1cc(NC2=C(Cl)C(=O)c3ccccc3C2=O)ccc1S(=O)(=O)Nc1ccccc1C [Compound 13h, 4-(3-chloro-1,4-dioxo-1,4-dihydro-naphthalen-2-ylamino)-2-methoxy-N-o-tolyl-benzenesulfonamide] | 197 to 200 °C
O=C1C(Cl)=C(N(Cc2ccc(C(F)(F)F)cc2)c2ccc(S(=O)(=O)Nc3ccccn3)cc2)C(=O)c2ccccc21 [Compound 6h, 4-((3-chloro-1,4-dioxo-1,4-dihydronaphthalen-2-yl)(4-(trifluoromethyl)benzyl)amino)-N-(pyridin-2-yl)benzenesulfonamide] | 157 to 159 °C
N=C(N)NS(=O)(=O)c1ccc(NC2=C(Cl)C(=O)c3ccccc3C2=O)cc1 [YG1-084, N-carbamimidoyl-4-(3-chloro-1,4-dioxo-1,4-dihydronaphthalen-2-ylamino)benzene-sulfonamide] | 294 to 295 °C
COc1cc(NS(=O)(=O)c2ccc(NC3=C(Cl)C(=O)c4ccccc4C3=O)cc2)nc(OC)n1 [Compound 2i, 4-(3-chloro-1,4-dioxo-1,4-dihydronaphthalen-2-ylamino)-N-(2,6-dimethoxypyrimidin-4-yl)-benzenesulfonamide] | 220 to 222 °C
Cc1cc(C)nc(NS(=O)(=O)c2ccc(NC3=C(Cl)C(=O)c4ccccc4C3=O)cc2)n1 [Compound 2g, 4-(3-chloro-1,4-dioxo-1,4-dihydronaphthalen-2-ylamino)-N-(4,6-dimethylpyrimidin-2-yl)benzenesulfonamide] | 210 °C (dec.)
COc1ccc(NS(=O)(=O)c2ccc(NC3=C(Cl)C(=O)c4ccccc4C3=O)cc2)cc1 [Compound 13f, 4-(3-chloro-1,4-dioxo-1,4-dihydro-naphthalen-2-ylamino)-N-(4-methoxy-phenyl)-benzenesulfonamide] | 233 to 234 °C
COc1ccc(NS(=O)(=O)c2ccc(NC3=C(Cl)C(=O)c4ccccc4C3=O)cc2OC)cc1 [Compound 13j, 4-(3-chloro-1,4-dioxo-1,4-dihydro-naphthalen-2-ylamino)-2-methoxy-N-(4-methoxy-phenyl)-benzenesulfonamide] | 165 to 167 °C

The remaining lines, values ahead:

melting point | Structure (SMILES)
234 to 237 °C | Cc1cccc(NS(=O)(=O)c2ccc(NC3=C(Cl)C(=O)c4ccccc4C3=O)cc2)c1 [Compound 13c, 4-(3-chloro-1,4-dioxo-1,4-dihydro-naphthalen-2-ylamino)-N-m-tolyl-benzenesulfonamide]
215 to 217 °C | COc1cnc(NS(=O)(=O)c2ccc(NC3=C(C)C(=O)c4ccccc4C3=O)cc2)nc1 [Compound 2m, N-(5-methoxypyrimidin-2-yl)-4-(3-methyl-1,4-dioxo-1,4-dihydronaphthalen-2-ylamino)-benzenesulfonamide]
286 °C (dec.) | O=C1C=C(Nc2ccc(S(=O)(=O)Nc3ccccn3)cc2)C(=O)c2ccccc21 [Compound 2r, 4-(1,4-dioxo-1,4-dihydronaphthalen-2-ylamino)-N-(pyridin-2-yl)benzenesulfonamide]
246 to 248 °C | Cc1ccnc(NS(=O)(=O)c2ccc(NC3=C(Cl)C(=O)c4ccccc4C3=O)cc2)n1 [Compound 2j, 4-(3-chloro-1,4-dioxo-1,4-dihydronaphthalen-2-ylamino)-N-(4-methylpyrimidin-2-yl)-benzenesulfonamide]
213 to 216 °C | COc1cccc(NS(=O)(=O)c2ccc(NC3=C(Cl)C(=O)c4ccccc4C3=O)cc2)c1 [Compound 13e, 4-(3-chloro-1,4-dioxo-1,4-dihydro-naphthalen-2-ylamino)-N-(3-methoxy-phenyl)-benzenesulfonamide]
235 to 237 °C | CC1=C(Nc2ccc(S(=O)(=O)NC(=O)c3ccccc3)cc2)C(=O)c2ccccc2C1=O [Compound 2l, N-(4-(3-methyl-1,4-dioxo-1,4-dihydronaphthalen-2-ylamino)phenylsulfonyl)benzamide]
180 to 182 °C | CCN(C1=C(Cl)C(=O)c2ccccc2C1=O)c1ccc(S(=O)(=O)Nc2ccccn2)cc1 [Compound 6b, 4-((3-chloro-1,4-dioxo-1,4-dihydronaphthalen-2-yl)(ethyl)amino)-N-(pyridin-2-yl)benzenesulfonamide]
220 to 222 °C | O=C1C(Nc2ccc(S(=O)(=O)Nc3ccccn3)cc2)=C(N2CCOCC2)C(=O)c2ccccc21 [Compound 3e, 4-(3-morpholino-1,4-dioxo-1,4-dihydronaphthalen-2-ylamino)-N-(pyridin-2-yl)benzenesulfonamide]
220 to 222 °C | CC1=C(Nc2ccc(S(=O)(=O)Nc3ccccn3)cc2)C(=O)c2ccccc2C1=O [Compound 2k, 4-(3-methyl-1,4-dioxo-1,4-dihydronaphthalen-2-ylamino)-N-(pyridin-2-yl)benzenesulfonamide]
220 to 223 °C | O=C1C(Cl)=C(Nc2ccc(S(=O)(=O)Nc3ccccc3)cc2)C(=O)c2ccccc21 [Compound 13b, 4-(3-chloro-1,4-dioxo-1,4-dihydro-naphthalen-2-ylamino)-N-phenyl-benzenesulfonamide]
222 to 224 °C | CN1CCN(C2=C(Nc3ccc(S(=O)(=O)Nc4ccccn4)cc3)C(=O)c3ccccc3C2=O)CC1 [Compound 3c, 4-(3-(4-methylpiperazin-1-yl)-1,4-dioxo-1,4-dihydronaphthalen-2-ylamino)-N-(pyridin-2-yl)-benzenesulfonamide]
198 to 201 °C | COc1ccccc1NS(=O)(=O)c1ccc(NC2=C(Cl)C(=O)c3ccccc3C2=O)cc1 [Compound 13d, 4-(3-chloro-1,4-dioxo-1,4-dihydro-naphthalen-2-ylamino)-N-(2-methoxy-phenyl)-benzenesulfonamide]
118 to 120 °C | CN(C)C1=C(Nc2ccc(S(=O)(=O)Nc3ccccn3)cc2)C(=O)c2ccccc2C1=O [Compound 3a, 4-(3-(dimethylamino)-1,4-dioxo-1,4-dihydronaphthalen-2-ylamino)-N-(pyridin-2-yl)-benzenesulfonamide]
152 to 154 °C | CN(C1=C(Cl)C(=O)c2ccccc2C1=O)c1ccc(S(=O)(=O)Nc2ccccn2)cc1 [Compound 6a, 4-((3-chloro-1,4-dioxo-1,4-dihydronaphthalen-2-yl)(methyl)amino)-N-(pyridin-2-yl)benzenesulfonamide]
135 to 140 °C | CN(Cc1ccccc1)C1=C(Nc2ccc(S(=O)(=O)Nc3ccccn3)cc2)C(=O)c2ccccc2C1=O [Compound 3b, 4-(3-(benzyl(methyl)amino)-1,4-dioxo-1,4-dihydronaphthalen-2-ylamino)-N-(pyridin-2-yl)-benzenesulfonamide]
255 to 257 °C | COc1cc(NS(=O)(=O)c2ccc(NC3=C(C)C(=O)c4ccccc4C3=O)cc2)nc(OC)n1 [Compound 2n, N-(2,6-dimethoxypyrimidin-4-yl)-4-(3-methyl-1,4-dioxo-1,4-dihydronaphthalen-2-ylamino)-benzenesulfonamide]
181 to 183 °C | CCCCN(C1=C(Cl)C(=O)c2ccccc2C1=O)c1ccc(S(=O)(=O)Nc2ccccn2)cc1 [Compound 6c, 4-(butyl(3-chloro-1,4-dioxo-1,4-dihydronaphthalen-2-yl)amino)-N-(pyridin-2-yl)benzenesulfonamide]

Source: US8673910B2, “Proteasome inhibitors for selectively inducing apoptosis in cancer cells” (H. Lee Moffitt Cancer Center and Research Institute, priority 2008, dated 2014)
